This note sets out measurements from patent US20030207930A1 (priority 2000, published 2003).

Like-named read-outs stand apart in the source and are kept apart here.

Data set [1] is described as follows: dissolving profile of film-coated tablet. In kind it is physicochemical. Particulars: within 15 minutes. As to the method: In addition, an improved dissolving profile in a tablet can be assured. In studies of the dissolving profile, it was established that the calcium salt, especially the tetrahydrate thereof, is released by 100% from a film-coated tablet within 15 minutes.
In addition, an improved dissolving profile in a tablet can be assured. In studies of the dissolving profile, it was established that the magnesium salt, especially the hexahydrate thereof, is released by 100% from a film-coated tablet within 15 minutes.

A short description of data set [2]: intrinsic dissolving rates. In kind it is physicochemical. Particulars: pH 1, pH 4.5 and pH 6.8; compared with valsartan.
For data set [3] the following is noted: N2 atmosphere, heating rate 10 K/min.
For data set [4] the following is noted: open container and sealed ampoule.
The conditions of data set [5]: 25° C., 4 hours.
Data set [6] in a line: hygroscopicity of the material obtained. In kind it is physicochemical. The note with it: material as obtained.
[7] abbreviates: step 1, relative humidity 40% (cycle 40-90).
[8] abbreviates: step 2, relative humidity 50% (cycle 40-90).
[9] abbreviates: step 3, relative humidity 60% (cycle 40-90).
The mark [10] stands for this setting: step 4, relative humidity 70% (cycle 40-90).
Where [11] appears, read: step 5, relative humidity 80% (cycle 40-90).
Setting [12] is: step 6, relative humidity 90% (cycle 40-90).
The mark [13] stands for this setting: step 7, relative humidity 80% (first cycle 90-0).
Where [14] appears, read: step 8, relative humidity 70% (first cycle 90-0).
[15] abbreviates: step 9, relative humidity 60% (first cycle 90-0).
[16] abbreviates: step 10, relative humidity 50% (first cycle 90-0).
The mark [17] stands for this setting: step 11, relative humidity 40% (first cycle 90-0).
[18] abbreviates: step 12, relative humidity 30% (first cycle 90-0).
Setting [19] is: step 13, relative humidity 20% (first cycle 90-0).
Where [20] appears, read: step 14, relative humidity 10% (first cycle 90-0).
[21] abbreviates: step 15, relative humidity 0% (first cycle 90-0).
The mark [22] stands for this setting: step 16, relative humidity 10% (cycle 0-90).
Setting [23] is: step 17, relative humidity 20% (cycle 0-90).
Setting [24] is: step 18, relative humidity 30% (cycle 0-90).
The mark [25] stands for this setting: step 19, relative humidity 40% (cycle 0-90).
Where [26] appears, read: step 20, relative humidity 50% (cycle 0-90).
Setting [27] is: step 21, relative humidity 60% (cycle 0-90).
[28] abbreviates: step 22, relative humidity 70% (cycle 0-90).
[29] abbreviates: step 23, relative humidity 80% (cycle 0-90).
Where [30] appears, read: step 24, relative humidity 90% (cycle 0-90).
The mark [31] stands for this setting: step 25, relative humidity 0% (second cycle 90-0).
Setting [32] is: step 26, relative humidity (starting value).

For the compound `CCCCC(=O)N(Cc1ccc(-c2ccccc2-c2nn[n-]n2)cc1)C(C(=O)[O-])C(C)C.[Ca+2]` (centres unmarked) [calcium salt of valsartan], in data set [1], the “release from a film-coated tablet” value was determined as 100%. Further, the intrinsic dissolving rates entry in data set [2] is reported as “improved values over those of valsartan”.
Regarding `CCCCC(=O)N(Cc1ccc(-c2ccccc2-c2nn[n-]n2)cc1)C(C(=O)[O-])C(C)C.[K+].[K+]` (centres unmarked) [di-potassium salt of valsartan], in data set [2], the intrinsic dissolving rates result is given as “improved values over those of valsartan”.
Turning to `CCCCC(=O)N(Cc1ccc(-c2ccccc2-c2nnn[nH]2)cc1)[C@H](C(=O)[O-])C(C)C.CCCCC(=O)N(Cc1ccc(-c2ccccc2-c2nnn[nH]2)cc1)[C@H](C(=O)[O-])C(C)C.O.O.O.O.O.O.[Mg+2]` [hexahydrate of the magnesium salt of (S)-N-(1-carboxy-2-methylprop-1-yl)-N-pentanoyl-N-[2′-(1H-tetrazol-5-yl)biphenyl-4-ylmethyl]-amine], the “weight loss or water loss in %” value was 0% in data set [3] (25° C.); 1.2% in data set [3] (50° C.); 4.2% in data set [3] (75° C.); 11.0% in data set [3] (100° C.); 16.7% in data set [3] (125° C.); 17.7% in data set [3] (150° C.). Further, the “weight loss or water loss in %” value came to 18.3% in data set [3] (175° C.); 18.5% in data set [3] (200° C.); 18.7% in data set [3] (225° C.); 18.9% in data set [3] (250° C.); 19.3% in data set [3] (275° C.). Moreover, the “water content in stability test” value in data set [4] was “remains constant”. Besides, the “water absorption or water loss (overall finding)” value in data set [5] (range of 20 to 80% relative humidity, measurement error about 0.1%) is “weak, reproducible water absorption or water loss”. Further, the “water absorption or loss in %” value turned out to be 0.06% in data set [5] (setting [7]); 0.14% in data set [5] (setting [8]); 0.19% in data set [5] (setting [9]); 0.25% in data set [5] (setting [10]); 0.41% in data set [5] (setting [11]); 0.58% in data set [5] (setting [12]). In addition, the “water absorption or loss in %” value in data set [5] (setting [13]) is given as 0.32%; in data set [5] (setting [14]), 0.22%; in data set [5] (setting [15]), 0.14%; in data set [5] (setting [16]), 0.08%; in data set [5] (setting [17]) it was 0.16%; in data set [5] (setting [18]) it was −0.03%. The “water absorption or loss in %” value in data set [5] (setting [19]) is recorded as −0.07%; in data set [5] (setting [20]), −0.12%; in data set [5] (setting [21]) it was −4.3%; in data set [5] (setting [22]), −0.79%; in data set [5] (setting [23]), −0.14%; in data set [5] (setting [24]), −0.05%. The “water absorption or loss in %” value came to 0.02% in data set [5] (setting [25]); 0.09% in data set [5] (setting [26]); 0.14% in data set [5] (setting [27]); 0.20% in data set [5] (setting [28]); 0.28% in data set [5] (setting [29]); 0.51% in data set [5] (setting [30]). Moreover, the “water absorption or loss in %” value was −3.68% in data set [5] (setting [31]) and −0.01% in data set [5] (setting [32]).
Regarding “(S)-N-(1-carboxy-2-methyl-prop-1-yl)-N-pentanoyl-N-[2′-(1H-tetrazol-5-yl)-biphenyl-4-ylmethyl]-amine calcium salt tetrahydrate”, the “weight loss or water loss in %” value came to 0% in data set [3] (25° C.); 0% in data set [3] (50° C.); 0.5% in data set [3] (75° C.); 3.5% in data set [3] (100° C.); 10.2% in data set [3] (125° C.); 12.4% in data set [3] (150° C.). The “weight loss or water loss in %” value in data set [3] (175° C.) was determined as 12.8%; in data set [3] (200° C.) it was 12.9%; in data set [3] (225° C.), 12.9%; in data set [3] (250° C.) it was 13.0%; in data set [3] (275° C.), 13.2%. For the same compound, the “water content in stability test” value in data set [4] was “remains constant”. For the same compound, the “water absorption or loss (overall finding)” value in data set [5] (0 to 90% relative humidity, measurement error about 0.1%) is “no measurable water absorption or loss”. Besides, the “water absorption or loss in %” value in data set [5] (setting [7]) is 0.04%; in data set [5] (setting [8]) it was 0.04%; in data set [5] (setting [9]) it was 0.03%; in data set [5] (setting [10]), 0.02%; in data set [5] (setting [11]), 0.02%; in data set [5] (setting [12]), 0.00%. Further, the “water absorption or loss in %” value in data set [5] (setting [13]) is listed as 0.02%; in data set [5] (setting [14]) it was 0.02%; in data set [5] (setting [15]), 0.02%; in data set [5] (setting [16]), 0.02%; in data set [5] (setting [17]), 0.02%; in data set [5] (setting [18]), 0.01%. Besides, the “water absorption or loss in %” value in data set [5] (setting [19]) is listed as 0.01%; in data set [5] (setting [20]), 0.00%; in data set [5] (setting [21]) it was −0.01%; in data set [5] (setting [22]), 0.00%; in data set [5] (setting [23]), 0.00%; in data set [5] (setting [24]), 0.00%. In addition, the “water absorption or loss in %” value is 0.00% in data set [5] (setting [25]); 0.00% in data set [5] (setting [26]); 0.01% in data set [5] (setting [27]); 0.00% in data set [5] (setting [28]); −0.01% in data set [5] (setting [29]); −0.02% in data set [5] (setting [30]). Further, the “water absorption or loss in %” value in data set [5] (setting [31]) was −0.02%; in data set [5] (setting [32]), 0.00%.
For the compound “(S)-N-(1-carboxy-2-methyl-prop-1-yl)-N-pentanoyl-N-[2′-(1H-tetrazol-5-yl)-biphenyl-4-ylmethyl]-amine dipotassium salt [Example 4]”, the hygroscopicity result in data set [6] is “hygroscopic”.
On the same count and under the same terms, with “(S)-N-(1-carboxy-2-methyl-prop-1-yl)-N-pentanoyl-N-[2′-(1H-tetrazol-5-yl)-biphenyl-4-ylmethyl]-amine disodium salt [Example 5]” the entry was “hygroscopic”.
For the compound “Bis-dibutylammonium Salt of Valsartan [Example 16]”, the hygroscopicity entry in data set [6] is “slightly hygroscopic”.
The same measure, in the same setting: as for “Hydrate of Valsartan Disodium Salt (2.4 ±1.0 Mole H2O) [Example 11]”, the entry is “slightly hygroscopic”.
For the compound “Hydrate of the Valsartan Dipotassium Salt (3.4±1.0 mole H2O) [Example 12]”, the hygroscopicity result in data set [6] was “slightly hygroscopic”.
